ChEMBL document CHEMBL1155736, “Suberedamines A and B, new bromotyrosine alkaloids from a sponge Suberea species” (J Nat Prod, 2001)
≈ marks a conversion by molar mass, not a printed value.

Legend:
Micrococcus luteus = assay: Antibacterial activity against Micrococcus luteus; assay type: functional
L1210 = assay: Cytotoxicity against mouse L1210 cells; assay type: functional, cell-based
KB = assay: Cytotoxicity against human KB cells; assay type: functional, cell-based

Row | SMILES | MIC (Micrococcus luteus) [µg/mL] | IC50 (L1210) [µg/mL] | IC50 (KB) [µg/mL]
1 | COc1ccc(C[C@H](N)C(=O)NCCc2cc(Br)c(OCCCN(C)C)c(Br)c2)cc1Br [SUBEREDAMINE A] | 12.6 (≈ 19.8 µM) | 8 (≈ 12.6 µM) | 9 (≈ 14.1 µM)
2 | CN[C@@H](Cc1ccc(OC)c(Br)c1)C(=O)NCCc1cc(Br)c(OCCCN(C)C)c(Br)c1 [SUBEREDAMINE B] | 12.6 (≈ 19.4 µM) | 8.6 (≈ 13.2 µM) | > 10
